In BindingDB's records for doi:10.1124/jpet.106.103382 (Wyeth Research, 2006):

Experiments:
Cannabinoid receptor 1 = Cannabinoid receptor 1 (Homo sapiens, UniProt P21554)
D(1A) dopamine receptor = D(1A) dopamine receptor (Homo sapiens, UniProt P21728)
[1] = target: D(3) dopamine receptor (Homo sapiens) (UniProt P35462)
[2] = target: T1, Muscarinic acetylcholine receptor M4 (Homo sapiens, UniProt P08173)
T1 sequence (P08173 whole entry): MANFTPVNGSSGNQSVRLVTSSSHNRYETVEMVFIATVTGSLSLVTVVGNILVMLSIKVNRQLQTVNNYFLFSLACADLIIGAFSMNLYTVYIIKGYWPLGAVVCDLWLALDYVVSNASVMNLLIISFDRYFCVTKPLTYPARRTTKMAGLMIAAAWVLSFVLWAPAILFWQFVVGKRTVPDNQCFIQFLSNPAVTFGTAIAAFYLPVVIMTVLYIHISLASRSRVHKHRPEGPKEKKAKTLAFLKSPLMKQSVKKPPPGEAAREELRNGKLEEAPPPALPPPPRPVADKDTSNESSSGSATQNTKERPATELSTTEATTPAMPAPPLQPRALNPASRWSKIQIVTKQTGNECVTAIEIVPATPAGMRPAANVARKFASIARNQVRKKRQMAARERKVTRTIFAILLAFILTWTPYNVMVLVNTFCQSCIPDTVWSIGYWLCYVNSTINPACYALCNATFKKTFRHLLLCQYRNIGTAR

Transporter = Transporter (Cavia porcellus, UniProt H0WCX4)
Sequence of Transporter (H0WCX4 whole entry): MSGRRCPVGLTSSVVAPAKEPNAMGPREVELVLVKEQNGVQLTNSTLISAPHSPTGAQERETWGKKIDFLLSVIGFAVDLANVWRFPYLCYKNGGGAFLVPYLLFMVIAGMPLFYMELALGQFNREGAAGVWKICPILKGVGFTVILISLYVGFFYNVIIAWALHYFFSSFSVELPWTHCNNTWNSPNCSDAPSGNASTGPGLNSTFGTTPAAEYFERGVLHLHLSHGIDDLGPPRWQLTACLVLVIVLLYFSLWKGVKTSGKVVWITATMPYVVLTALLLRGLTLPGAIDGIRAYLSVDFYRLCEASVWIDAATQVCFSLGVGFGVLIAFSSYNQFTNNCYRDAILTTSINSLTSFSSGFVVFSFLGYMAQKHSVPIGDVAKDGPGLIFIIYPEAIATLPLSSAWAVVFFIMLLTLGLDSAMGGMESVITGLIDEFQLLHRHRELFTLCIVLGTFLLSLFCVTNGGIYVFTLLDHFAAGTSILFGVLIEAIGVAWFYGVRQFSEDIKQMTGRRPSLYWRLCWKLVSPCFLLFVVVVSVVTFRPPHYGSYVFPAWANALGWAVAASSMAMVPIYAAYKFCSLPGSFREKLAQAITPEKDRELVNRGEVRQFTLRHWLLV

Adenosine receptor A1 = target: T2, Adenosine receptor A1 (Homo sapiens, UniProt P30542)
T2 sequence (P30542 whole entry): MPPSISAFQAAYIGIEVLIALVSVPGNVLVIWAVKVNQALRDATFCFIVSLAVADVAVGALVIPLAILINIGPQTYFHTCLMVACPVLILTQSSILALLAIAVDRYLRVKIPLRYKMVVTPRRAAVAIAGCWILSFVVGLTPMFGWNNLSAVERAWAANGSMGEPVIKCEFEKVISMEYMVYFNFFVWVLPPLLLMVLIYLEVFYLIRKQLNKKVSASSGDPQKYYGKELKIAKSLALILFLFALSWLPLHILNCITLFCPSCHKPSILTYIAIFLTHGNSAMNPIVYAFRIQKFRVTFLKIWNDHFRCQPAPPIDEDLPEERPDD

[3] = target: Muscarinic acetylcholine receptor M3 (Homo sapiens, UniProt P20309)
Sequence of Muscarinic acetylcholine receptor M3 (P20309 whole entry): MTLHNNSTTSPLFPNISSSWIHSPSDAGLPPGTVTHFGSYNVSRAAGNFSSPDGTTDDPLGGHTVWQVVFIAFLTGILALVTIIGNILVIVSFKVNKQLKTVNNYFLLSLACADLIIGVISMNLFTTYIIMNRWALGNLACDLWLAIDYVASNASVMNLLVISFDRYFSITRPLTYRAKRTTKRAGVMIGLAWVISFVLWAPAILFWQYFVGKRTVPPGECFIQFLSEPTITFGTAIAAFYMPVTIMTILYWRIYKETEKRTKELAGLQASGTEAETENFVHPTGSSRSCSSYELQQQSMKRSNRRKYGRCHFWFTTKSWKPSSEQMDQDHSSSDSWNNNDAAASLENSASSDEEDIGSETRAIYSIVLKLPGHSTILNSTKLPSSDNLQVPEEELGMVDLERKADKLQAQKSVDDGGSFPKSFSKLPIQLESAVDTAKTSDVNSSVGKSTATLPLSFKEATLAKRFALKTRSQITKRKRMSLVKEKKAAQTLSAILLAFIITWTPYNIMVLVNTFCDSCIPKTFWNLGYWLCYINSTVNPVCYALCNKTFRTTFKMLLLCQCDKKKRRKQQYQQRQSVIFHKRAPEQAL

[4] = target: Histamine H3 receptor (Homo sapiens) (UniProt Q9Y5N1)
Sequence of Histamine H3 receptor (Homo sapiens) (Q9Y5N1 whole entry, looked up): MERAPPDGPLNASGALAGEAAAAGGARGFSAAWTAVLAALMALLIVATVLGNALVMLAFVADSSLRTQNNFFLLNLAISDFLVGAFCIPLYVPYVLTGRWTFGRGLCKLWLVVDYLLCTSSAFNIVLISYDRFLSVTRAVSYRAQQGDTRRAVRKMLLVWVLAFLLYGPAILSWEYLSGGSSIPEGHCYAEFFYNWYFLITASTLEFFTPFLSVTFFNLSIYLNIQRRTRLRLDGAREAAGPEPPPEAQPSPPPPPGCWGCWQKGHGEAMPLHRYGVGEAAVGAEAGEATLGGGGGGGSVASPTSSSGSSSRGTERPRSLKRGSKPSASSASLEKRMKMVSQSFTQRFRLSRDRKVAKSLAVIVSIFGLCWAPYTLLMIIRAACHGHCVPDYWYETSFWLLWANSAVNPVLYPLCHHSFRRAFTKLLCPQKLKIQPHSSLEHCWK

Cannabinoid receptor 2 = Cannabinoid receptor 2 (Homo sapiens, UniProt P34972)
Sequence of Cannabinoid receptor 2 (P34972 whole entry): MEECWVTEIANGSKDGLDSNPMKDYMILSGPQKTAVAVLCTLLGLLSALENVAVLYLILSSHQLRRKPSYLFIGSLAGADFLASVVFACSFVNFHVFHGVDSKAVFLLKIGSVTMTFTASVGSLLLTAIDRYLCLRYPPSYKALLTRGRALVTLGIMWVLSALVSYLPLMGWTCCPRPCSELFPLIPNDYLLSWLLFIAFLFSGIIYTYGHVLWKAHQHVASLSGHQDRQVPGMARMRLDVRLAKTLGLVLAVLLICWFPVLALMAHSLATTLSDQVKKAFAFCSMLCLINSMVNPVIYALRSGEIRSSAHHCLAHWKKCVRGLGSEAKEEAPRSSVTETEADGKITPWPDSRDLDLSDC

[5] = target: T3, Muscarinic acetylcholine receptor M2 (Homo sapiens, UniProt P08172)
T3 sequence (P08172 whole entry): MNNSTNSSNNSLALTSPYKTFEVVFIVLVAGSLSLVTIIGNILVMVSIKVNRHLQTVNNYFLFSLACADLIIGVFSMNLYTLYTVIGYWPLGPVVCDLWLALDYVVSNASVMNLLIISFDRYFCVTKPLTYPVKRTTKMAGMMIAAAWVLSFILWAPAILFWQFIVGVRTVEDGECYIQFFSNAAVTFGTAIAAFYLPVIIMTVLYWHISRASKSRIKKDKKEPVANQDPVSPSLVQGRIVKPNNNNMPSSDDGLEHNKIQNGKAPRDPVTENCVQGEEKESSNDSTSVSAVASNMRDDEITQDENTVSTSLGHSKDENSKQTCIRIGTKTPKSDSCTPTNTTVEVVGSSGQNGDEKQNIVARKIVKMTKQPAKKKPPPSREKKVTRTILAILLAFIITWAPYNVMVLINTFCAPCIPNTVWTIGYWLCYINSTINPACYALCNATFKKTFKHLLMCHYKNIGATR

Adenosine receptor A2b = target: T4, Adenosine receptor A2b (Bos taurus, UniProt Q1LZD0)
T4 sequence (Q1LZD0 whole entry): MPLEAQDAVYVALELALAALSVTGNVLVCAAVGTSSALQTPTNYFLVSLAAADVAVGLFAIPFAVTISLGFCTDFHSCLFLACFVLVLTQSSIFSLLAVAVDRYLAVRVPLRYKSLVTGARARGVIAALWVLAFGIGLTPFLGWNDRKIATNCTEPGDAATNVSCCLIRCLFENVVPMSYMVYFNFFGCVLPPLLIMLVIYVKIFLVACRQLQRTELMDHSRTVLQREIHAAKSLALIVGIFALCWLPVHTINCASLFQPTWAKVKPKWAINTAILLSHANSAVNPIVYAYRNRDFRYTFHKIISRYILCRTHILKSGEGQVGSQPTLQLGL

[6] = target: T5, Muscarinic acetylcholine receptor M1 (Homo sapiens, UniProt P11229)
T5 sequence (P11229 whole entry): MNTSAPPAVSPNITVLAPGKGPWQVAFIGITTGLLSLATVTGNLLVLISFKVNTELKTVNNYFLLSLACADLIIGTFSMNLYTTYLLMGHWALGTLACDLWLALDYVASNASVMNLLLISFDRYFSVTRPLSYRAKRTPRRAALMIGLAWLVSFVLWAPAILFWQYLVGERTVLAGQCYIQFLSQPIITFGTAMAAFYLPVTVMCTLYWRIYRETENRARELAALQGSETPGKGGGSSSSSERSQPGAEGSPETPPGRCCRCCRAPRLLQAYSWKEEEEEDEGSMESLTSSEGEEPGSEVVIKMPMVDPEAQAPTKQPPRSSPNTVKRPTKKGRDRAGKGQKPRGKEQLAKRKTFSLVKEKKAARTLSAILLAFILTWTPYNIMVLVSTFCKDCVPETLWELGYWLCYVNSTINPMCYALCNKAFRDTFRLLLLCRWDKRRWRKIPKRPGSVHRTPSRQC

[7] = target: T6, Muscarinic acetylcholine receptor M5 (Homo sapiens, UniProt P08912)
T6 sequence (P08912 whole entry): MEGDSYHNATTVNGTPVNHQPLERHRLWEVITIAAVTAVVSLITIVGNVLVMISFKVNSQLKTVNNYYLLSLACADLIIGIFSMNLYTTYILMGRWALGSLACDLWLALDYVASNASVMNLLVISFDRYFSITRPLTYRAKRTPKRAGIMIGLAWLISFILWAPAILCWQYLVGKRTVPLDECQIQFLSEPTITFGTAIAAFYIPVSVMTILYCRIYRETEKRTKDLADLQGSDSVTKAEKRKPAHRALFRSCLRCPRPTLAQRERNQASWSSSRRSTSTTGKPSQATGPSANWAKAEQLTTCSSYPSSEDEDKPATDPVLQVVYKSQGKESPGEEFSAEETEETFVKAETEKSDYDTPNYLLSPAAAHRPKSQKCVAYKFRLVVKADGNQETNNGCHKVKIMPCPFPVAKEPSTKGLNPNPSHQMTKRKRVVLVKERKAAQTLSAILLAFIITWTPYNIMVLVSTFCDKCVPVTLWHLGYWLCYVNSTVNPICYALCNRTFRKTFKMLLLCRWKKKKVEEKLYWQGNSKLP

D(2) dopamine receptor = D(2) dopamine receptor (Homo sapiens, UniProt P14416)
Sequence of D(2) dopamine receptor (P14416 whole entry): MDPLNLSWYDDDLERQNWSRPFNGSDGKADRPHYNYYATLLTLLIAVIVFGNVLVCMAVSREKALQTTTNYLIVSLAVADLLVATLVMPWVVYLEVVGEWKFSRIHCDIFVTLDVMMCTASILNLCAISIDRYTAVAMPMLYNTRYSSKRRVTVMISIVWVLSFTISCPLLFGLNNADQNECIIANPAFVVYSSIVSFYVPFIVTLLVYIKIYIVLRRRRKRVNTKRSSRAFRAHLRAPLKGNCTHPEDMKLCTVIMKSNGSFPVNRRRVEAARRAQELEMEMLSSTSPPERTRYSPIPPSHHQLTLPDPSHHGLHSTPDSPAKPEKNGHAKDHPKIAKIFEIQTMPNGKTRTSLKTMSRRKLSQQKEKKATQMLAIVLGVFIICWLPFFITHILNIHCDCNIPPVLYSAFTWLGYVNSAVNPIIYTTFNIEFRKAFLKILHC

[8] = target: Histamine H2 receptor (Homo sapiens) (UniProt P25021)
Sequence of Histamine H2 receptor (Homo sapiens) (P25021 whole entry, looked up): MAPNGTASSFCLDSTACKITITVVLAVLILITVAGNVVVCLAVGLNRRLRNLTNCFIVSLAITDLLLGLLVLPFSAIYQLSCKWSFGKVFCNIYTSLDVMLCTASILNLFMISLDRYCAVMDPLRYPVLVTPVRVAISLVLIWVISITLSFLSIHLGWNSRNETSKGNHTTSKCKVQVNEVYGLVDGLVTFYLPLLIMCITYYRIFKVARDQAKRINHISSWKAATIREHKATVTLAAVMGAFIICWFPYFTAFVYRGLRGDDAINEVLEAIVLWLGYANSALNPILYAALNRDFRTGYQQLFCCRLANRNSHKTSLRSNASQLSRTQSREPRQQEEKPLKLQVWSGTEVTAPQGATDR

[9] = target: Histamine H1 receptor (Homo sapiens) (UniProt P35367)
Sequence of Histamine H1 receptor (Homo sapiens) (P35367 whole entry, looked up): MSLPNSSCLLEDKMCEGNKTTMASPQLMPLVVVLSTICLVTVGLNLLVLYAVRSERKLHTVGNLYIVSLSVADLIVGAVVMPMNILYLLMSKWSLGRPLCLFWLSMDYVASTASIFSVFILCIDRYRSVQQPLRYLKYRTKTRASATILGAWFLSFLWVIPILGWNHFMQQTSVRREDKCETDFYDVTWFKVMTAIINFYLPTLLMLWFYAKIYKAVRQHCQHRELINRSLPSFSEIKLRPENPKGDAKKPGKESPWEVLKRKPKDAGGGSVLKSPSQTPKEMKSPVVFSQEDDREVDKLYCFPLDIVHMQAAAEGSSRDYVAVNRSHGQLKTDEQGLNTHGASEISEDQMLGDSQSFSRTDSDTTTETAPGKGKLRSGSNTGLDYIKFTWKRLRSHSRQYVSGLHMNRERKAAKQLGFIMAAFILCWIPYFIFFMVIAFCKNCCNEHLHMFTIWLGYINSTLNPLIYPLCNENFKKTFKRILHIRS

Measured: IC50

Sequence of Cannabinoid receptor 1 (P21554 whole entry): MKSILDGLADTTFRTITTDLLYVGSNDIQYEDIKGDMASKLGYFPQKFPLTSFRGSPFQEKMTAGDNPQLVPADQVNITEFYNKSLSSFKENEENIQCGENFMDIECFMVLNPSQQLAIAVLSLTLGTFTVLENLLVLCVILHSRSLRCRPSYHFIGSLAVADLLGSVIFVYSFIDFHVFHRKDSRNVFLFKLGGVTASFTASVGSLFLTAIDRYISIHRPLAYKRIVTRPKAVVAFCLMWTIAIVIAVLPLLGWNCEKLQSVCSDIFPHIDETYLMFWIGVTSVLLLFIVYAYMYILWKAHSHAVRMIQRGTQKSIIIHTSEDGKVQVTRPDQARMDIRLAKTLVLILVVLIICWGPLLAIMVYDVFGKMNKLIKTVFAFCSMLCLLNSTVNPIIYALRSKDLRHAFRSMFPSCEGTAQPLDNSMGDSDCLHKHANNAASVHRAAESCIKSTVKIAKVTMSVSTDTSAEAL
Sequence of D(3) dopamine receptor (Homo sapiens) (P35462 whole entry, looked up): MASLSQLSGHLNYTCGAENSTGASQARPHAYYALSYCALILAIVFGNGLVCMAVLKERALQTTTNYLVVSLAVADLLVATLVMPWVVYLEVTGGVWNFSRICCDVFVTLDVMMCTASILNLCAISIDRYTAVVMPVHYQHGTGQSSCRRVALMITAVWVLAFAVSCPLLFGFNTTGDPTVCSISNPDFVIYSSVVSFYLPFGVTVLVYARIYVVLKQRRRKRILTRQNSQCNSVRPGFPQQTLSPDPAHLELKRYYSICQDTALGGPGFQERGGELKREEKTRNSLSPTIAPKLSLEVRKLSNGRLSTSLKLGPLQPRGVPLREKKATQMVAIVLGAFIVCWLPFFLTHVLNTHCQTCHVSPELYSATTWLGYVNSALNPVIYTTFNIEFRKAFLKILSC
Sequence of D(1A) dopamine receptor (P21728 whole entry): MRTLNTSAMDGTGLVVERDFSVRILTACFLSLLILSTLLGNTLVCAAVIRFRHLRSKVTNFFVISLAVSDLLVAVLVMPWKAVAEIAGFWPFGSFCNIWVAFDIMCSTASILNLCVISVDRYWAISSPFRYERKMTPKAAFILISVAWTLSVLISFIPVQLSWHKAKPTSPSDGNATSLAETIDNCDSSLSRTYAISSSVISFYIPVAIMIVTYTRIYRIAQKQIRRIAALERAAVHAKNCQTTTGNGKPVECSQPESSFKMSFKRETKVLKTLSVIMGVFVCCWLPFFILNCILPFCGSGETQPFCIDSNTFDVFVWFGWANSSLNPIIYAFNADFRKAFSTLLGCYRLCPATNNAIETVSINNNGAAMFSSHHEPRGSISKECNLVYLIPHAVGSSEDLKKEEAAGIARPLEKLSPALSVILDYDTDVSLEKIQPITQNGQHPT

CN(C)CC(c1ccc(O)cc1)C1(O)CCCCC1 (stereo unspecified) [CAS_386750-22-7]
> 10 µM: Cannabinoid receptor 1 | D(1A) dopamine receptor | [1] | [2] | Transporter | Adenosine receptor A1 | [3] | [4] | Cannabinoid receptor 2 | [5] | Adenosine receptor A2b | [6] | [7] | D(2) dopamine receptor | [8] | [9]
